In ChEMBL document CHEMBL5465560, “Selectivity Literature for EUbOPEN Chemogenomic Library” (2024):

What was measured:
[1] = target: Delta-type opioid receptor (Homo sapiens, UniProt P41143); experiment: Selectivity interaction (GPCR panel (PDSP screen)) EUB0000311b OPRD1; settings: at 10 µM
[2] = target: Platelet-derived growth factor receptor beta (Homo sapiens, UniProt P09619); experiment: Selectivity interaction (KinomeScan (DiscoverX)) EUB0000595a PDGFRB; settings: at 10 µM
[3] = target: RAC-gamma serine/threonine-protein kinase (Homo sapiens, UniProt Q9Y243); experiment: Selectivity interaction (KinomeScan (DiscoverX)) EUB0000666a AKT3; settings: at 10 µM
Chain of RAC-gamma serine/threonine-protein kinase (Q9Y243 whole entry): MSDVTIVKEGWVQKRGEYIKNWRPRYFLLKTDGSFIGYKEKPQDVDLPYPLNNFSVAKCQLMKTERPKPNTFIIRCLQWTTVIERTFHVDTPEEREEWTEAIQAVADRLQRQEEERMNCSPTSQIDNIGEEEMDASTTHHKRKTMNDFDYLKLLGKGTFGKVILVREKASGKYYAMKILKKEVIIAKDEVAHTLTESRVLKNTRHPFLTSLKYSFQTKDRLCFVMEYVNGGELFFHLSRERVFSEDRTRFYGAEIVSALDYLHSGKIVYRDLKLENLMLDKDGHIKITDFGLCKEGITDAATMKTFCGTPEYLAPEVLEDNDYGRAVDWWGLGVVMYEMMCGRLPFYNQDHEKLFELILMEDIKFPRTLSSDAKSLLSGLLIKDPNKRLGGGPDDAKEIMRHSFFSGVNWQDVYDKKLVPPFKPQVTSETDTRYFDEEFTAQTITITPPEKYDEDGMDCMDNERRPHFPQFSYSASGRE

[4] = target: T1, Dual serine/threonine and tyrosine protein kinase (Homo sapiens) (UniProt Q6XUX3); settings: at 10 µM
T1 sequence (whole entry): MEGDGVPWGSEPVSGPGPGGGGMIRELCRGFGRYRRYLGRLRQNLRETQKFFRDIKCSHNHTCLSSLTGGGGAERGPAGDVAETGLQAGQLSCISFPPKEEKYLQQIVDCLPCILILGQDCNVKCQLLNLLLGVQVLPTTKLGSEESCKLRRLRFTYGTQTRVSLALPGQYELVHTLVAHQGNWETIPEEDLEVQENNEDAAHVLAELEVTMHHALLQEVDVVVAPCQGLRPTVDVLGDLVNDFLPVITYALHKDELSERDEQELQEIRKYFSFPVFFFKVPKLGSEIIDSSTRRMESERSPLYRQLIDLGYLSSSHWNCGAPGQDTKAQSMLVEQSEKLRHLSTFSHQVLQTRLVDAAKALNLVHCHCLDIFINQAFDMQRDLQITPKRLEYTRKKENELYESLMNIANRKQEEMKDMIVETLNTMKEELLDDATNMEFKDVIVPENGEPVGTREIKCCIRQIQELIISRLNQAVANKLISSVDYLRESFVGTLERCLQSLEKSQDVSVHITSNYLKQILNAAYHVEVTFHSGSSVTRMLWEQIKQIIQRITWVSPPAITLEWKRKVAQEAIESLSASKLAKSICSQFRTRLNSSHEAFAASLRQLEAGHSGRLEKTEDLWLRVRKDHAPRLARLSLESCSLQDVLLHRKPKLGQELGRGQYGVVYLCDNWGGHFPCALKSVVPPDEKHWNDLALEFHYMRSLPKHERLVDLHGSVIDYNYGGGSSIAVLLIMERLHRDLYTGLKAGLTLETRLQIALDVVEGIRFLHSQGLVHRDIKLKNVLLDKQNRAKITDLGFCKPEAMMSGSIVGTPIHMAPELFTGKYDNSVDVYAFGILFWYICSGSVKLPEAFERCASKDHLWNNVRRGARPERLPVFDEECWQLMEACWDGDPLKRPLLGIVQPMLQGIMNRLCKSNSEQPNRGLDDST

[5] = target: T2, Serine/threonine-protein kinase 4 (Homo sapiens) (UniProt Q13043); experiment: Selectivity interaction (KinomeScan (DiscoverX)) EUB0001049a STK4; settings: at 1 µM
T2 sequence (whole entry): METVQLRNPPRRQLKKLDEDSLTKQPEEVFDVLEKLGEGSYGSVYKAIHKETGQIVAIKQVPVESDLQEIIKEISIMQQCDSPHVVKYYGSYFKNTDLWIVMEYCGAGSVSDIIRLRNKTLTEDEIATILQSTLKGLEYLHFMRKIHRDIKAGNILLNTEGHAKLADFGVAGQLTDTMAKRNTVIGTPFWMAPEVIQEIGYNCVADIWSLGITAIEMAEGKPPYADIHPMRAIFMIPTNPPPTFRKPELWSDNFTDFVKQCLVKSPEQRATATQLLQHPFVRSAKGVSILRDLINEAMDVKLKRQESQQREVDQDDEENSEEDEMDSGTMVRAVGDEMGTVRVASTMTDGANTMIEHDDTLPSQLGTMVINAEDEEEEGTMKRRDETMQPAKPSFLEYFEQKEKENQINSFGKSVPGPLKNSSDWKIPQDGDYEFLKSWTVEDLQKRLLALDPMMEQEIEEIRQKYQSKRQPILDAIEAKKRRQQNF

[6] = target: Tyrosine-protein kinase JAK2 (Homo sapiens, UniProt O60674); experiment: Selectivity interaction (Upstate Kinase Profiler service (Millipore)) EUB0000056c JAK2; settings: at 1 µM
Chain of Tyrosine-protein kinase JAK2 (O60674 whole entry): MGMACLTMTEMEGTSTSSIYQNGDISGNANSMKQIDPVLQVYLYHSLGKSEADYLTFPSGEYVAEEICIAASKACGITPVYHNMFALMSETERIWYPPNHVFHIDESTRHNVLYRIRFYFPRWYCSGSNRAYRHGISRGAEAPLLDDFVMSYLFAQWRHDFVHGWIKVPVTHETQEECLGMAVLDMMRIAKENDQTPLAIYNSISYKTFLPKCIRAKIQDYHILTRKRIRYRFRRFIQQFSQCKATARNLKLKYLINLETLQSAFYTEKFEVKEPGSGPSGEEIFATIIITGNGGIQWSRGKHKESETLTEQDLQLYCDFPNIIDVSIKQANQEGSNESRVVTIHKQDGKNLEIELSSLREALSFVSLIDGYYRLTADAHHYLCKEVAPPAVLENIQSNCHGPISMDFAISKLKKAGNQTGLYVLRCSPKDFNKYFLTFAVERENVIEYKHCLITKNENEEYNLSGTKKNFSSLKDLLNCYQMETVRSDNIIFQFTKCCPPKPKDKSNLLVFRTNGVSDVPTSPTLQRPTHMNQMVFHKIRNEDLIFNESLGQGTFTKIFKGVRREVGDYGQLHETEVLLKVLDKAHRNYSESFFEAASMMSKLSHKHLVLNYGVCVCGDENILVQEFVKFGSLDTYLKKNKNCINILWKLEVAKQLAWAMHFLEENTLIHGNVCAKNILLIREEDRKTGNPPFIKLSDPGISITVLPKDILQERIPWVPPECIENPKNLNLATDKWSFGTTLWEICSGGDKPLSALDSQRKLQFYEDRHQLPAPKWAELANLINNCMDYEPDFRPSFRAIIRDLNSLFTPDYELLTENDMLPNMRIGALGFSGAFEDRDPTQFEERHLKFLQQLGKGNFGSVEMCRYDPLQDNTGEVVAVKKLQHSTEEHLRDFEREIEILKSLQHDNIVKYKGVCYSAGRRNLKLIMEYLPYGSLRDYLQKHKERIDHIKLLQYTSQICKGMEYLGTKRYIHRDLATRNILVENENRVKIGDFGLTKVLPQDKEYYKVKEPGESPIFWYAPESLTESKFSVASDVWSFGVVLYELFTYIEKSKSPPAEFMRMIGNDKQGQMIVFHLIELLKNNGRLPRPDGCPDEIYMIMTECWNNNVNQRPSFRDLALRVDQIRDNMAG

[7] = target: Mitogen-activated protein kinase 11 (Homo sapiens) (UniProt Q15759); experiment: Selectivity interaction (Upstate Kinase Profiler service (Millipore)) EUB0000056c MAPK11; settings: at 1 µM
[8] = Selectivity interaction (Kinase panel (Enzyme activity assay)) EUB0000612a IGF1
[9] = target: T3, Serine/threonine-protein kinase Nek11 (Homo sapiens) (UniProt Q8NG66); experiment: Selectivity interaction (KinomeScan (DiscoverX)) EUB0001619a NEK11; settings: at 1 µM
T3 sequence (whole entry): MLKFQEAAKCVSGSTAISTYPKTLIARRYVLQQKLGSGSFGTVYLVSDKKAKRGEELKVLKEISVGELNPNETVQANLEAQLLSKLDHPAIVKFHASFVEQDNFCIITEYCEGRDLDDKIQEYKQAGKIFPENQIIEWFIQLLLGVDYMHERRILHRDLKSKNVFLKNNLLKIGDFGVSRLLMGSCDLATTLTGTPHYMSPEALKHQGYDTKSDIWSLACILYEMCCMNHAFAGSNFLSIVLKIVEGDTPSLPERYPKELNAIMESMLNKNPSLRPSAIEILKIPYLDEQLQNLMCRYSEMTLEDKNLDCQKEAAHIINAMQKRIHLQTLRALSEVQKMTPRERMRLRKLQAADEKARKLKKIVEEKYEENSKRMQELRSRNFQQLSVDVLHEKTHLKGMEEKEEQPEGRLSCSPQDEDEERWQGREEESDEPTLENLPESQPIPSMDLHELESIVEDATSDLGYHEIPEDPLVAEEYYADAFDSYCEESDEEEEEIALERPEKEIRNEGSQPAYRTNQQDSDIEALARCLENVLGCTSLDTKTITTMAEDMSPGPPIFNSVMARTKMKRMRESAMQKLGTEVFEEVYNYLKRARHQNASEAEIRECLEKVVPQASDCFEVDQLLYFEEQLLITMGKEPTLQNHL

[10] = target: Transient receptor potential cation channel subfamily M member 6 (Homo sapiens) (UniProt Q9BX84); experiment: Selectivity interaction (KinomeScan (DiscoverX)) EUB0001619a TRPM6; settings: at 1 µM
Chain of Transient receptor potential cation channel subfamily M member 6 (Homo sapiens) (Q9BX84 whole entry): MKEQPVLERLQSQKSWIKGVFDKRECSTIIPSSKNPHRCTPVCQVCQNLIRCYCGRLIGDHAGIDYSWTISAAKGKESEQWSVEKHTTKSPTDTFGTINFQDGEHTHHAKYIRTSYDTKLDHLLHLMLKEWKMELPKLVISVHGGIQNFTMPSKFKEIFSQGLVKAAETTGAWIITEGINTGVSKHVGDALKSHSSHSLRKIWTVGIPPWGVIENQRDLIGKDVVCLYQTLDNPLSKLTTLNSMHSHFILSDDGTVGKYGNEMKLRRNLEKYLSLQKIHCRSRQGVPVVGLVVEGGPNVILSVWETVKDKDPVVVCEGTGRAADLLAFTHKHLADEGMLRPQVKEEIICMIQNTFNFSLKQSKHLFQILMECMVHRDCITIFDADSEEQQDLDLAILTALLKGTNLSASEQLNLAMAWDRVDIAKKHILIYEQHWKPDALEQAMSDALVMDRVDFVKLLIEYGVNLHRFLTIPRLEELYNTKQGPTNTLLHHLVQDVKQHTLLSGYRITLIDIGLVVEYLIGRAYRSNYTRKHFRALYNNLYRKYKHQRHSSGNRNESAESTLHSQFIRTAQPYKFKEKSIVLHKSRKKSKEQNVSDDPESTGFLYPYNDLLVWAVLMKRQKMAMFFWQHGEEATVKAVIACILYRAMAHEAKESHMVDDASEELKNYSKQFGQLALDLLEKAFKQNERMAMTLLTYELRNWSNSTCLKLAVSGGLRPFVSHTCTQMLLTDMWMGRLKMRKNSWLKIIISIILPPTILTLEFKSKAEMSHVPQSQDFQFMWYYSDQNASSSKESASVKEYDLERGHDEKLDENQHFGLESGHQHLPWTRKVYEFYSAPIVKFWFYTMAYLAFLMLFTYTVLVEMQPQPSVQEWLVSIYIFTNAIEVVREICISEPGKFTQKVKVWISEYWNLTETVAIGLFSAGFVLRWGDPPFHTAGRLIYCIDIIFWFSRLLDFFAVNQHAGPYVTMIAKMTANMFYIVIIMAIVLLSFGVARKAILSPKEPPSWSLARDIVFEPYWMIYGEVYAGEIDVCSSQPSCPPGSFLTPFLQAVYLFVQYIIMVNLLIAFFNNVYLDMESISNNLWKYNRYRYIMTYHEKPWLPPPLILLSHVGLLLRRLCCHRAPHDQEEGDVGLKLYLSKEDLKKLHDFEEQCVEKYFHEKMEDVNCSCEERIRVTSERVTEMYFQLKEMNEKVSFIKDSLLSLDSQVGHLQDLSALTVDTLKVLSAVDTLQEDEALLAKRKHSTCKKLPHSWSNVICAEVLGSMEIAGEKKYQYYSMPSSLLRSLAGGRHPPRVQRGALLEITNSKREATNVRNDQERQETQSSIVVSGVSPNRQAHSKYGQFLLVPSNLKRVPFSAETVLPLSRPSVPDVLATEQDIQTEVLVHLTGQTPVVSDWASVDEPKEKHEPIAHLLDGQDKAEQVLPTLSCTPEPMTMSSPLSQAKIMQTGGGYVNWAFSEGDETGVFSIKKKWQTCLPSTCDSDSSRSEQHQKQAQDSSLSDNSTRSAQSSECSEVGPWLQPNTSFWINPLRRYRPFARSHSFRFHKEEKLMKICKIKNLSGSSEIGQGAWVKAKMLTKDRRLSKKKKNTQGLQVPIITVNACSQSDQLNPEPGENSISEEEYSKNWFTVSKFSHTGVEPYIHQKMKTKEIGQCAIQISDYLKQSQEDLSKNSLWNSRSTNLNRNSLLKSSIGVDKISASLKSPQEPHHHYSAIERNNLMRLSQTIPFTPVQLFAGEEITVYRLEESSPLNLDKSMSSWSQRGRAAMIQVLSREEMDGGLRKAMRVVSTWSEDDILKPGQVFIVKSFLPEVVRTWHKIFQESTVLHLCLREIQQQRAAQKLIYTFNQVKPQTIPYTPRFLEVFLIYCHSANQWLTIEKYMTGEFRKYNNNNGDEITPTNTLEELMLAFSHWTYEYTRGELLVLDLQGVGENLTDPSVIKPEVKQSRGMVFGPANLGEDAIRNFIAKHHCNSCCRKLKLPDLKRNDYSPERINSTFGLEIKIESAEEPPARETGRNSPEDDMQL

[11] = target: Ribosomal protein S6 kinase alpha-2 (Homo sapiens) (UniProt Q15349); experiment: Selectivity interaction (KinomeScan (DiscoverX)) EUB0000655a RPS6KA2; settings: at 10 µM

Chain of Delta-type opioid receptor (P41143 whole entry): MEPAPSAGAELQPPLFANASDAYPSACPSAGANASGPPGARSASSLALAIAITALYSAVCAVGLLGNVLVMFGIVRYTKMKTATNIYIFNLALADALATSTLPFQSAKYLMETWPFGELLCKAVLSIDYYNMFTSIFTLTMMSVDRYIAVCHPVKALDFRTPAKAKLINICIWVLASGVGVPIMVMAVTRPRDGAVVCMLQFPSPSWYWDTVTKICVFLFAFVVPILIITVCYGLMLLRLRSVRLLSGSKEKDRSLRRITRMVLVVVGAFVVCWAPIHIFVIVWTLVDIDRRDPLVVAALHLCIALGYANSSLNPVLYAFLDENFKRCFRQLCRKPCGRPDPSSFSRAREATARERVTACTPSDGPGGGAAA
Chain of Platelet-derived growth factor receptor beta (P09619 whole entry): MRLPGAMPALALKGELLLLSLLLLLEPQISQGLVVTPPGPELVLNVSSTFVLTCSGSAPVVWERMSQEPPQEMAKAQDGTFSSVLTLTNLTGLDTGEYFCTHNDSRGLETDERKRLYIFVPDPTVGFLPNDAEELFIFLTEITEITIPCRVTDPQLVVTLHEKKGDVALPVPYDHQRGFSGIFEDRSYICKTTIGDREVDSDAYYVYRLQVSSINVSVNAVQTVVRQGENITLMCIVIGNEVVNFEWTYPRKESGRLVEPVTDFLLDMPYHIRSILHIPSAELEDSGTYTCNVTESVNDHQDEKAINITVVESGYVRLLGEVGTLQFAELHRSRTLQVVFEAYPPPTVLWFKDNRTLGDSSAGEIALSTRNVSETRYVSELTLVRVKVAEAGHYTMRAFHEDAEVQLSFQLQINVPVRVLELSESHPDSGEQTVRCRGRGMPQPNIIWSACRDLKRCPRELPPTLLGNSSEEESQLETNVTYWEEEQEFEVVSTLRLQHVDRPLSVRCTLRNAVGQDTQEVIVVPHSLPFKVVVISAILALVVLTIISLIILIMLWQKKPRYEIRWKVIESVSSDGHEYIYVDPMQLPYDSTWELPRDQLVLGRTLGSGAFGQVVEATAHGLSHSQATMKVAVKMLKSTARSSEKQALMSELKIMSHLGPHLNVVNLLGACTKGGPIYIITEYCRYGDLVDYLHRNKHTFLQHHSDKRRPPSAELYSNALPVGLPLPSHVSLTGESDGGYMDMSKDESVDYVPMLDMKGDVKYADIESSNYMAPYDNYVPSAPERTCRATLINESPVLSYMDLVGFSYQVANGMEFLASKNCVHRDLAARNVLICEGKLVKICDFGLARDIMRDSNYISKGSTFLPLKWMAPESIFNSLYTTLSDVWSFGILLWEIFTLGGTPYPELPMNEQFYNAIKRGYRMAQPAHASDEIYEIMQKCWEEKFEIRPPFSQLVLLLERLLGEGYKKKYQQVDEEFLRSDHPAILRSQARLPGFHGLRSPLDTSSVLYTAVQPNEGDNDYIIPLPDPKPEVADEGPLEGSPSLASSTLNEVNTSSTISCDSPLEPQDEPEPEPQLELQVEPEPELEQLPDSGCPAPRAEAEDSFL

Structure (SMILES): CCc1ccccc1C(=O)Nc1n[nH]c2c(C)c(F)c(C3C(C#N)=C(C)N(C)C(C)=C3C#N)cc12 [BAY-3827]
- % of inhibition [1]: 20.5%

Structure (SMILES): COCC(=O)NC/C=C/c1ccc2ncnc(Nc3ccc(Oc4ccc(C)nc4)c(C)c3)c2c1 [CP-724714]
- % of control [2]: 46%

Structure (SMILES): O=C(NOC[C@H](O)CO)c1ccc(F)c(F)c1Nc1ccc(I)cc1F
- % of control [3]: 89%

Structure (SMILES): Cc1cc([C@@H](C)Nc2ccccc2C(=O)O)c2nc(N3CCOCC3)cc(=O)n2c1 [AZD-6482]
- % of control [4]: 100%

Structure (SMILES): COc1cc(Nc2nc(C)cc(-c3cnn4nc(OC)ccc34)n2)cc(C(F)(F)F)c1
- % of control [5]: 85%

Structure (SMILES): Cc1ccc(-c2ccc3c(ccc4sc5c(c43)NC[C@@H](C)NC5=O)n2)cn1
- % of inhibition [6]: 14%
- % of inhibition [7]: 5%

Structure (SMILES): CCc1cccc(CC)c1NC(=O)c1nn(C)c2c1CCc1cnc(Nc3ccc(C(=O)NC4CCN(C)CC4)cc3OC(F)(F)F)nc1-2
- IC50 [8]: > 10 µM

Structure (SMILES): N#Cc1cccc(-c2c[nH]c3ncnc(N4CCOCC4)c23)c1
- % of control [9]: 100%
- % of control [10]: 100%

Structure (SMILES): CN(C)CCOc1ccc(-c2nc(-c3ccncc3)c(-c3ccc4c(c3)CC/C4=N\O)[nH]2)cc1
- % of control [11]: 100%
